# According to publication PMC10683372 (Protein Science : A Publication of the Protein Society, 2023):
# Where “and” joins values, the source holds several entries; their conditions need not be identical. Equal values may be shown once. Read-outs that look alike come from different tables or passages of the source. Bridge positions count the residues as written; N and C are the ends. Square brackets hold non-standard residues; d marks the D form. Ends that are not written are not given here. Peptide text beside a SMILES is read from it. Dip = N[C@H](C(=O)O)C(c1ccccc1)c1ccccc1; 1Nal = N[C@@H](Cc1cccc2ccccc12)C(=O)O; 2Nal = N[C@@H](Cc1ccc2ccccc2c1)C(=O)O; Cha = N[C@@H](CC1CCCCC1)C(=O)O; Nle = CCCC[C@H](N)C(=O)O
# Experiments:
# α‐thrombin (αT) = target: T1, α‐thrombin (αT) (Homo sapiens, UniProt P00734); experiment: Tight-binding inhibition of αT amidolytic activity on chromogenic substrate S2238; type: biochemical
# T1 construct: goes from Thr1 of the A-chain to Glu295 of the B-chain
# Experimental: Enzyme inhibition assays were all performed at 25 ± 0.1°C in TBS (10 mM Tris–HCl pH 7.4, 0.1% PEG‐8000 w/v) in the presence of 0.15 M or 0.4 M NaCl, using a Jasco double‐beam V‐630 spectrophotometer equipped with a Peltier model PAC‐740 temperature control system (De Filippis et al., [1999]). Tight‐binding inhibition assays were performed by pre‐incubating αT (500 pM) for 30 min with increasing inhibitor concentrations [I]. The reaction started by the addition of the chromogenic substrate S2238 (20 μM) and the release of p‐nitroaniline (pNA) was continuously monitored at 405 nm, using a molar absorptivity of 9920 M^−1∙cm^−1.
# (§1) and added with the chromogenic substrate S2238 (100 mM). The values of vi/v0, were plotted as
# (§2) a function of the inhibitor, as indicated, where v0 and vi are the steady state velocities in the
# (§3) absence or presence of the inhibitor. The data points were interpolated with eq. 3, to yield Kiapp ,
# (§4) which was then converted to KI using eq. 4. (B) Slow-binding inhibition. Assays were
# (§5) performed by adding aT (50 pM) into a solution of S2238 (40 mM) in the presence of
# (§6) Each progress curve was interpolated with
# (§7) eq. 5 to obtain the corresponding observed kinetic constant, kobs.Interpolation of the data points
# with eq. 6 in the plot of kobs vs. [I], allowed us to estimate the values of kon and koff (see
# Methods for details). All measurements were conducted in at 25 ± 0.1°C in TBS, pH 7.4. The
# data points are the average of three independent measurements, with error bars as ±SD.
# [1] = octanol/water; of the organic molecule corresponding to the amino acid side chain at position 3, not of the peptide; ref Sangster, 1989; cited from earlier work
# αT [2] = target: T2, αT (Homo sapiens, UniProt P00734, S568A)
# [3] = target: T3, α‐Thrombin mutant R93A (exosite II) (Homo sapiens, UniProt P00734, R452A); experiment: Slow binding inhibition of thrombin mutant R93A; type: biochemical; conditions: slow binding inhibition model
# T3 construct: made in house
# Experimental: Single X → Ala mutants of αT at either exosite I (Phe34Ala, Lys73Ala, Lys110Ala) and II (Arg93Ala, Arg101Ala) were produced and purified to homogeneity as earlier reported (Acquasaliente et al., [2016]; Pozzi et al., [2013]) (Figure S3) and incubated with haemadin to extract kinetic (k on and k off) and equilibrium (K I) constants of αT inhibition. […]
# When slow binding inhibition assays were performed, αT (50 pM) was added to solutions of S2238 (50 μM) in the presence of increasing inhibitor (I) concentrations. From the time‐course release of pNA, [P]t, an observed kinetic constant (k obs) of substrate hydrolysis could be determined as a fitting parameter by interpolating each progress curve at increasing [I] to Equation (5) (Arcone et al., [2009]): (5) Pt=vs∙t+vo−vs/kobs∙1−e^−kobs∙t, where v 0 and v s is the initial or steady state velocity at each [I]. The association (k on) and dissociation (k off) rate constants of αT‐haemedin interaction were determined as fitting parameters by interpolating the data points of k obs as a function of [I] with Equation (6): (6) kobs=kon/1+S/Km∙I+koff. […]
# [4] = target: T4, recombinant wild type thrombin (αT) (Homo sapiens, UniProt P00734); experiment: Slow binding inhibition of thrombin amidolytic activity (S2238 progress curves); type: biochemical; conditions: slow binding inhibition model (Eq. 5, 6), 25°C, TBS pH 7.4
# T4 construct: made in house
# Experimental: as §1, §2, §3, §4, §5, §6, §7
# with eq. […]
# αT [5] = target: T2, αT; design: made in house; conditions: cited from earlier work
# Excerpt: Abstract Hirudin from Hirudo medicinalis is a bivalent α‐Thrombin (αT) inhibitor, targeting the enzyme active site and exosite‐I, and is currently used in anticoagulant therapy along with its simplified analogue hirulog. […] At variance with hirudin, haemadin targets exosite‐II and therefore (besides the free protease) it also blocks thr ... || The relevance of pharmacological applications of hirudin and its analogues has stimulated intensive research on hematophagous organisms, allowing identification of novel αT protein inhibitors, including the isolation of haemadin from the Indian leech Haemadipsa sylvestris (Strube et al., [1993]). […] However, haemadin binds to the fast form only 7‐fold more tightly than to the Na^+‐free (slow) form, with a coupling free energy ΔG c = ΔG b(fast) − ΔG b(slow) = −1.1 kcal/mol. For comparison, full‐length hirudin and its N‐terminal domain 1–47, bind more tightly to the fast form by ~30‐fold (ΔG c = −2.1 kcal/mol), compared to the slow form (De Filippis et al., [2005]; Di Cera et al., [1997]). The higher af ... || (+ 1 further places)
# [6] = target: recombinant wild‐type thrombin (Homo sapiens, UniProt P00734); experiment: biochemical
# Experimental: (§8) The reaction was started by addition of the chromogenic substrate S2238 (50 μM). Values of v i/v 0 are plotted as a function of inhibitor concentration, where v 0 and v i are the steady state velocities of S2238 hydrolysis in the absence or presence of inhibitor. Data points are the average of three independent measurements, with errors as ±SD. […] Data points in binding/inhibition measurements are the average of three independent measurements, with errors as ±SD.
# (§9) Fluorescence measurements were performed at 25 ± 0.1°C in Tris buffered saline (TBS, 20 mM Tris–HCl, pH 7.4, 0.15 M NaCl, 0.1% PEG‐8000) in a 1 cm‐pathlength cuvette, using a Jasco FP‐6500 spectrofluorimeter, equipped with a Peltier model ETC‐273T temperature control system. […] Briefly, to a solution of αT (50 nM) were added, under gentle magnetic stirring, incremental volumes of ligand stock solutions. The samples were excited at 280 nm (5/5 excitation/emission slit) and the emission intensities were recorded at 334 nm, after subtracting the corresponding spectra of the ligands alone. Fluorescence data were corrected for sample dilution, which was always <2% at the end of the titration. […]
# (§10) When the binding of PABA was studied, samples were excited at 336 nm and the emission of PABA was recorded at 376 nm, after baseline subtraction and correction for inner filter effect, as detailed elsewhere (Pontarollo et al., [2017]). […]
# [7] = target: thrombin R93A (exosite II) (Homo sapiens, UniProt P00734, R452A); experiment: biochemical
# Experimental: as §8, §9, §10
# [8] = Thermal denaturation monitored by far‐UV CD; type: physicochemical; conditions: PBS pH 7.4, protein 0.69 mg/mL; CD at 233 nm (haemadin) or 220 nm (hirudin); heating 40°C·h^−1; inflection point, rough estimate
# Experimental: CD spectra were recorded on a Jasco J‐810 spectropolarimeter equipped with a Peltier model ETC‐273 T temperature control system (De Filippis, Polverino de Laureto, et al., [1996]). Far and Near UV‐CD spectra were recorded in a 0.1‐ or 1 cm‐pathlength quartz cell at a peptide/protein concentration of 0.47 or 1 mg/mL, respectively. All measurements were performed in phosphate buffered saline (PBS, 10 mM Na2HPO4 pH 7.4, 0.15 M NaCl) at 25 ± 0.1°C. The final spectra resulted from the average of four accumulations after base line subtraction. CD data were expressed as the mean residue ellipticity, [θ] = θ obs·MRW/(10·l·c), where θ obs is the observed signal in degrees, MRW is the mean residue weight, l is the cuvette pathlength in cm, and c is the protein concentration in g∙mL^−1. Stability measurements were carried out by recording the change of the CD signal in the far‐UV region as a function of sample temperature, using a 0.1‐cm pathlength cuvette and linear heating rate of 40°C∙h^−1. The reversibility of thermal unfolding was determined by measuring the recovery of the CD signal upon cooling to the starting temperature. The melting temperature (T m) was estimated from the first‐derivative of the thermal denaturation curve (De Filippis, Vassiliev, et al., [1996]; Frigerio et al., [1996]).
# αT [9] = conditions: at the Arg‐X bond; ref Maraganore et al., 1990; Lombardi et al., 1996, 1999; cited from earlier work
# Excerpt: The fragment‐based approach is quite common in drug discovery and has been already exploited for the production of hirulogs, hirutonins, and hirunorms as simplified hirudin analogues (Lombardi et al., [1996]; Maraganore et al., [1990]; Szewczuk et al., [1993]). […] As a result, hirulog I (Angiomax®) is slowly ...
molecule,measurement,setting,value
CCCC[C@H](NC(=O)CNC(=O)[C@H](Cc1ccccc1)NC(=O)[C@H](CCCNC(=N)N)NC(=O)[C@@H](N)[C@@H](C)CC)C(=O)NCC(=O)N[C@@H](CCCCN)C(=O)N[C@H](C(=O)N1CCC[C@H]1C(=O)NCC(=O)O)C(C)C [Met5Nle] (H-IRFG[Nle]GKVPG-OH),Ki,α‐thrombin (αT),1900 ± 100 nM
same,Log P,[1],2.73
CCCC[C@H](NC(=O)CNC(=O)[C@H](CC1CCCCC1)NC(=O)[C@H](CCCNC(=N)N)NC(=O)[C@@H](N)[C@@H](C)CC)C(=O)NCC(=O)N[C@@H](CCCCN)C(=O)N[C@H](C(=O)N1CCC[C@H]1C(=O)NCC(=O)O)C(C)C [Phe3Cha] (H-IR[Cha]G[Nle]GKVPG-OH),Ki,α‐thrombin (αT),3800 ± 100 nM
same,Log P,[1],3.88
CCCC[C@H](NC(=O)CNC(=O)[C@@H](NC(=O)[C@H](CCCNC(=N)N)NC(=O)[C@@H](N)[C@@H](C)CC)C(c1ccccc1)c1ccccc1)C(=O)NCC(=O)N[C@@H](CCCCN)C(=O)N[C@H](C(=O)N1CCC[C@H]1C(=O)NCC(=O)O)C(C)C [Phe3DiP] (H-IR[Dip]G[Nle]GKVPG-OH),Ki,α‐thrombin (αT),7400 ± 400 nM
same,Log P,[1],4.80
CCCC[C@H](NC(=O)CNC(=O)[C@H](Cc1ccc(O)cc1)NC(=O)[C@H](CCCNC(=N)N)NC(=O)[C@@H](N)[C@@H](C)CC)C(=O)NCC(=O)N[C@@H](CCCCN)C(=O)N[C@H](C(=O)N1CCC[C@H]1C(=O)NCC(=O)O)C(C)C [Phe3Tyr] (H-IRYG[Nle]GKVPG-OH),Ki,α‐thrombin (αT),6600 ± 400 nM
same,Log P,[1],1.97
CCCC[C@H](NC(=O)CNC(=O)[C@H](Cc1cccc2ccccc12)NC(=O)[C@H](CCCNC(=N)N)NC(=O)[C@@H](N)[C@@H](C)CC)C(=O)NCC(=O)N[C@@H](CCCCN)C(=O)N[C@H](C(=O)N1CCC[C@H]1C(=O)NCC(=O)O)C(C)C [Phe3αNal] (H-IR[1Nal]G[Nle]GKVPG-OH),Log P,[1],4.00
CCCC[C@H](NC(=O)CNC(=O)[C@H](Cc1ccc2ccccc2c1)NC(=O)[C@H](CCCNC(=N)N)NC(=O)[C@@H](N)[C@@H](C)CC)C(=O)NCC(=O)N[C@@H](CCCCN)C(=O)N[C@H](C(=O)N1CCC[C@H]1C(=O)NCC(=O)O)C(C)C [Phe3βNal] (H-IR[2Nal]G[Nle]GKVPG-OH),Ki,α‐thrombin (αT),190 ± 10 nM
same,Log P,[1],4.00
CCCC[C@H](NC(=O)CNC(=O)[C@H](Cc1ccc2ccccc2c1)NC(=O)[C@H](CCCNC(=N)N)NC(=O)[C@@H](N)[C@@H](C)CC)C(=O)NCC(=O)N[C@@H](CCCCN)C(=O)N[C@H](C(=O)N1CCC[C@H]1C(=O)NCC(=O)NCC(=O)NCC(=O)N1CCC[C@H]1C(=O)N[C@@H](CCCCN)C(=O)N1CCC[C@H]1C(=O)N[C@@H](CO)C(=O)N[C@@H](CO)C(=O)N[C@@H](CCC(=O)O)C(=O)N[C@@H](Cc1ccccc1)C(=O)N[C@@H](CCC(=O)O)C(=O)N[C@@H](CCC(=O)O)C(=O)N[C@@H](Cc1ccccc1)C(=O)N[C@@H](CCC(=O)O)C(=O)N[C@H](C(=O)N[C@@H](CC(=O)O)C(=O)N[C@@H](CCC(=O)O)C(=O)N[C@@H](CCC(=O)O)C(=O)N[C@@H](CCC(=O)O)C(=O)N[C@@H](CCCCN)C(=O)O)[C@@H](C)CC)C(C)C [haemanorm] (H-IR[2Nal]G[Nle]GKVPGGGPKPSSEFEEFEIDEEEK-OH),Ki,α‐thrombin (αT),0.8 nM
same,resistance to proteolysis by αT at the Arg2‐βNal bond,αT [2],fully resistant
"IRFGMGKVPCPDGEVGYTCDCGEKICLYGQSCNDGQCSGDPKPSSEFEEFEIDEEEK (disulfide 10-19, 21-32, 26-37) [haemadin]",Ki,α‐thrombin (αT),0.0015 ± 5e-05 nM
same,koff,[3],3.68e-05 ± 1e-07 s⁻¹
same,kon,[3],2.998e+08 ± 300000 M⁻¹ s⁻¹
same,koff,[4],4.83e-05 ± 2e-07 s⁻¹
same,kon,[4]; αT 50 pM added to S2238 plus inhibitor,2.253e+08 ± 200000 M⁻¹ s⁻¹
"N‐terminal domain 1–40: N‐terminal domain 1–40 of haemadin (Richardson et al., 2002)",Ki,"αT [5]; ref Richardson et al., 2002",5 nM
Phe3Trp: Phe3′ → Trp analogue of Haem(1–10),Ki,"α‐thrombin (αT); 25 ± 0.1°C, TBS, αT 250 pM incubated with peptide, S2238 50 μM, tight‐binding model (Eq. 3, 4), average of three independent measurements ± SD, read-out: K I",2900 ± 300 nM
SEFEEFEIDEEEK [Haem(45–57)],Kd,[6],1600 nM
same,Kd,[7],1180 ± 90 nM
VSYTD [reference compound],inhibition of αT,α‐thrombin (αT); not shown,lacks any significant inhibition
hirudin,melting temperature (T m),[8],63 ± 1 °C and ~ 63 °C
same,coupling free energy ΔG c,"αT [5]; fast vs slow form, ref De Filippis et al., 2005, Di Cera et al., 1997",-2.1 kcal/mol
same,fold tighter binding to fast form than to slow form,"αT [5]; ref De Filippis et al., 2005, Di Cera et al., 1997",~ 30 fold
hirulog I: synthetic bivalent analogue of hirudin,cleavage by αT,αT [9],slowly cleaved
